Measured values taken from PMC4168790 (ACS Chemical Biology, 2014).

Tests used:
[1] = target: T1, PptT (Mycobacterium tuberculosis, UniProt O33336); format: biochemical, M. tuberculosis; conditions: MAS as target carrier protein (4 µM MAS, 2 µM rhodamine CoA), 250 nM PptT
T1 sequence (O33336 1-227): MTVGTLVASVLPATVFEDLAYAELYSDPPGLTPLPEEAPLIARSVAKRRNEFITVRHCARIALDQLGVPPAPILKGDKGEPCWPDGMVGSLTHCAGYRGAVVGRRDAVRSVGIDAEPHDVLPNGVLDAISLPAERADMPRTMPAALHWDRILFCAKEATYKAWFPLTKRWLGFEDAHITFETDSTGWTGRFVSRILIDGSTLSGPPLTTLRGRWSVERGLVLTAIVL

[2] = target: T1, PptT; test: biochemical; format: binding, M. tuberculosis
[3] = target: T2, Sfp (Bacillus subtilis, UniProt P39135); test: Isothermal titration calorimetry of CoA analogs binding to Sfp; set-up: species or system B. subtilis
T2 sequence (P39135 1-224): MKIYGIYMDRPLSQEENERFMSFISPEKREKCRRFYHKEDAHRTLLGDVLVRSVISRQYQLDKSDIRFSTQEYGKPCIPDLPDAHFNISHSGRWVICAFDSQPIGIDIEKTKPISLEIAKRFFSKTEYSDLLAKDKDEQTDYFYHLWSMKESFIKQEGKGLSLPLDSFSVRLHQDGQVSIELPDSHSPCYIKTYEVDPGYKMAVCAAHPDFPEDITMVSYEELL

[4] = test system: HsPPT; conditions: cited from earlier work

## CN[C@@H](C)[C@H](O)c1ccccc1 [(−)-ephedrine hemisulfate, (−)-ephedrine]
[1]
  IC50, PptT, MAS: inactive

## CC(C)(COP(=O)(O)OP(=O)(O)OC[C@H]1O[C@@H](n2cnc3c(N)ncnc32)[C@H](O)[C@@H]1OP(=O)(O)O)[C@@H](O)C(=O)NCCC(=O)NCCS [CoA, coenzyme A]
[2]
  Kd: 36 ± 13 nM
[2]; ITC, 16°C
  enthalpy of binding (ΔH), PptT: −5.78 ± 0.08 kcal mol^–1
  entropy of binding (TΔS), PptT: 4.14 ± 0.16 kcal mol^–1
[3]
  Kd: 3.4 ± 0.2 µM
[3]; ITC, 16°C
  enthalpy of binding (ΔH), Sfp: −12.5 ± 0.15 kcal mol^–1
  entropy of binding (TΔS), Sfp: −5.07 ± 0.38 kcal mol^–1

## N=C1Sc2ccccc2C2=NCCCN12 [PD 404, 182]
[4]
  inhibitory activity against HsPPT: no inhibitory activity

## CN=c1nc(-c2ccccc2)n(-c2ccccc2)s1 [SCH-202676]
[4]
  inhibitory activity against HsPPT: no inhibitory activity

## Clc1ccc(C(c2ccc(Cl)cc2)n2cc[n+](CC(OCc3ccc(Cl)cc3Cl)c3ccc(Cl)cc3Cl)c2)cc1 (stereo not shown) [calmidazolium Cl, calmidazolium chloride]
[4]
  inhibitory activity against HsPPT: no inhibitory activity

## NC(N)=Nc1ccc2[nH]c3c(c2c1)C[C@@]1(O)[C@H]2Cc4ccc(O)c5c4[C@@]1(CCN2CC1CC1)[C@H]3O5.O=C(O)C(F)(F)F.O=C(O)C(F)(F)F [guanidinyl-naltrindole 2CF3COOH, guanidinyl-naltrindole]
[4]
  inhibitory activity against HsPPT: no inhibitory activity

## O=C1c2c(O)ccc(O)c2C(=O)c2c(NCCNCCO)ccc(NCCNCCO)c21 [mitoxantrone 2HCl, mitoxantrone]
[1]
  IC50, PptT, MAS: inactive

## C[n+]1cc2c3c(ccc2c2ccc4cc5c(cc4c21)OCO5)OCO3 [sanguinarine Cl, sanguinarine chloride]
[4]
  inhibitory activity against HsPPT: no inhibitory activity
